Columns and labels:
[1] = molecular target: T1, human S1P5 receptor (Homo sapiens, UniProt Q9H228); test: In vitro functional activity (agonism), CHO-human-S1P5-Aequorin assay; type: cell-based; conditions: read-out: S1P5 pEC50 (converted)
T1 construct: host or cells: CHO (AequoScreen recombinant cell line, co-expressing mitochondrially targeted apo-aequorin)
Source text: In Vitro Functional Activity (Agonism) on Human S1P5 Receptors
(§1) The CHO-human-S1P5-Aeqorin assay was bought from Euroscreen, Brussels (Euroscreen, Technical dossier, Human Lysophospholid S1P5 (Edg8) receptor, DNA clone and CHO AequoScreen™ recombinant cell-line, catalog no: ES-593-A, September 2006). Human-S1P5-Aequorin cells express mitochondrial targeted apo-Aequorin. Cells have to be loaded with coelanterazine, in order to reconstitute active Aequorin. After binding of agonists to the human S1P5 receptor the intracellular calcium concentration increases and binding of calcium to the apo-Aequorin/coelenterazine complex leads to an oxidation reaction of coelenterazine, which results in the production of apo-Aequorin, coelenteramide, CO2 and light (λmax 469 nm). This luminescent response is dependent on the agonist concentration. Luminescence is measured using the MicroBeta Jet (Perkin Elmer). Agonistic effects of compounds are expressed as pEC50. Compounds were tested at a 10 points half log concentration range, and 3 independent experiments were performed in single point's measurements.

[2] = molecular target: T2, human S1P1 (Homo sapiens, UniProt P21453); test: In vitro functional activity (agonism), CHO-K1-human S1P1 cAMP assay; type: cell-based; conditions: read-out: S1P1 pEC50 (converted)
T2 construct: host or cells: CHO-K1
Protocol: In Vitro Functional Activity (Agonism) on Human S1P1 Receptors
The CHO-K1-Human S1P1-c-AMP assay was performed at Euroscreenfast, Brussels (Euroscreen, Human S1P1 coupling Gi/o), (Edg1) receptor, catalog no: FAST-0197C, December 2009).
Recombinant CHO-K1 cells expressing human S1P1, grown to mid-log Phase in culture media without antibiotics, detached, centrifuged and re-suspended. For agonist testing cells are mixed with compound and Forskolin and incubated at room temperature. Cells are lyses and cAMP concentration are estimated, according to the manufacturer specification, With the HTRF kit from CIS-BIO International (cat no 62AM2PEB).
Agonistic effects of compounds are expressed as a percentage of the activity of the reference compound at its EC100 concentration, EC50) is calculated and results are reported as pEC50. Compounds were tested at a 10 points half log concentration range duplicated in 1 experiment.

[3] = tested on: C57BL/6J mice; test: In vivo therapeutic model; T-maze spontaneous alternation; conditions: 12-month old male C57BL6J mice; 10 mg/kg/day p.o. for 21 days and on test day at t=-30 min
Protocol: FIG. 1 Percentage of alternation of young and old C57BL/6J male mice in the T-maze with either vehicle (control groups) or compound 34b (10 mg/kg; p.o.)
In Vivo Therapeutic Model; T-Maze
Age-related memory deficits occur in humans and rodents. Spontaneous alternation is the innate tendency of rodents to alternate free choices in a T-maze over a series of successive runs. This sequential procedure relies on working memory and is sensitive to various pharmacological manipulations affecting memory processes (Aging and the physiology of spatial memory. Barnes C. A. Neurobiol. Aging 1988:563-8; Dember W N, Fowler H. Spontaneous alternation behavior. Psychol. Bull. 1958, 55(6):412-427; Gerlai R. A new continuous alternation task in T-maze detects hippocampal dysfunction in mice. A strain comparison and lesion study. Behav Brain Res 1998 95(1):91-101).
For this study, male C57BL/6J mice of 2 months or 12 months old were used in the spontaneous alternation task in the T-maze. In short, mice were subjected to 1 session containing 15 trials, consisting of 1 “forced-choice” trial, followed by 14 “free-choice” trials. The animal was considered as entering one of the arms of the maze when all four paws are placed within this arm. […] The percentage of alternation over the 14 free-choice trials was determined for each mouse and was used as an index of working memory performance. […]

[4] = molecular target: T3, human S1P3 receptor (Homo sapiens, UniProt Q99500); test: In vitro functional activity (agonism), CHO-human-S1P3-Aequorin assay; type: cell-based; conditions: read-out: S1P3 pEC50 (converted)
T3 construct: cell line established at Solvay Pharmaceuticals; host or cells: CHO K1 (CHO/Gα16/AEQ/h-S1P3)
Source text: In Vitro Functional Activity (Agonism) on Human S1P3 Receptors
The CHO-human-S1P3-Aeqorin assay (CHO/Gα16/AEQ/h-S1P3) was established at Solvay Pharmaceuticals. The plasmid DNA coding for the S1P3 receptor (accession number in GenBank NM_005226 was purchased from UMR cDNA resource Centre (Rolla, Mo.). The pcDNA3.1/hS1P3 construct carrying the mitochondrially targeted apo-Aeqorin and Gα16 protein was transfected in CHO K1 cell-line.
as §1, with “Human-S1P3-Aequorin” for “The CHO-human-S1P5-Aeqorin assay was bought from Euroscreen, Brussels (Euroscreen, Technical dossier, Human Lysophospholid S1P5 (Edg8) receptor, DNA clone and CHO AequoScreen™ recombinant cell-line, catalog no: ES-593-A, September 2006). Human-S1P5-Aequorin”, “S1P3” for “S1P5”

T1 sequence (Q9H228 whole entry): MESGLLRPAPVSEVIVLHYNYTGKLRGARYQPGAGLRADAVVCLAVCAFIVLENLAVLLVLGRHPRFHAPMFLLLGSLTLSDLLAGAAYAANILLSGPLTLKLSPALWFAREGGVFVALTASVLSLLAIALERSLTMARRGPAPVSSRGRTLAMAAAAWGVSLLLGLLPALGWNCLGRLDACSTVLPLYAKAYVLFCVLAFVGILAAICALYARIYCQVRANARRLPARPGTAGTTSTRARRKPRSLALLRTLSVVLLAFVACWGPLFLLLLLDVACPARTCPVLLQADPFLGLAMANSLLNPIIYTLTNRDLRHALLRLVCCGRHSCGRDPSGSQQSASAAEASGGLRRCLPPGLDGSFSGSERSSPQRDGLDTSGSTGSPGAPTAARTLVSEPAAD
T2 sequence (P21453 whole entry): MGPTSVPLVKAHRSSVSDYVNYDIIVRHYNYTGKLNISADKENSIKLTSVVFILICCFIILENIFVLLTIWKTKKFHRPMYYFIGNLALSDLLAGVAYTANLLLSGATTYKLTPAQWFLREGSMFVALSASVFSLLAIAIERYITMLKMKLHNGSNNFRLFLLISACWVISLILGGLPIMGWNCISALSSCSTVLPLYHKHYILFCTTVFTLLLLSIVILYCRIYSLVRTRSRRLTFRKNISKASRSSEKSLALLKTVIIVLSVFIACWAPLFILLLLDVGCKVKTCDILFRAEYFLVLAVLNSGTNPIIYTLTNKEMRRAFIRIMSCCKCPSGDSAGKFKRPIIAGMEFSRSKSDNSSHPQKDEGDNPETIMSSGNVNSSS
T3 sequence (Q99500 whole entry): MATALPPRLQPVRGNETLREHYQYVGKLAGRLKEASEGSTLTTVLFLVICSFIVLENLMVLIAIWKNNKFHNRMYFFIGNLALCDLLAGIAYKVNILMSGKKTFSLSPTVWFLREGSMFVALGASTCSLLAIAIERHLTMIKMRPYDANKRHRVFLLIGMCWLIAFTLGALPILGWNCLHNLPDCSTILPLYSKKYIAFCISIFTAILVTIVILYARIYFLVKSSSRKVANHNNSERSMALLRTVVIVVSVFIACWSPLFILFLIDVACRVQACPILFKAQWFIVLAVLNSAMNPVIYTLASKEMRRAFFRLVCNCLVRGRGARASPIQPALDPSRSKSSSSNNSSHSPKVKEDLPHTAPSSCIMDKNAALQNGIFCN

EC50 [1] [nM] | EC50 [2] [nM] | EC50 [4] [nM] | melting point [°C] | Structure (SMILES) | reversal of the age-related cognitive decline (percentage of alternation in T-maze) [3] [%]
31.6 | > 3160 | – | – | Cl.O=C(O)CCN1CCOC(c2ccc(OCc3c(Cl)cccc3Cl)cc2)C1 (single isomer, unassigned; (-)) [Compound 34b, (−)-3-{2-[4-(2,6-Dichloro-benzyloxy)-phenyl]-morpholin-4-yl}-propionic acid hydrochloride] | 100
126 | > 3160 | > 10000 | 174.5 to 178 | Cl.O=C(O)CCN1CCOC(c2ccc(OCc3c(Cl)cccc3Cl)cc2F)C1 (centres unmarked) [Compound 179, 3-{2-[4-(2,6-Dichloro-benzyloxy)-2-fluoro-phenyl]-morpholin-4-yl}-propionic acid hydrochloride] | –
158 | 1580 | 1580 | 178.5 to 180.5 | CCCCCCCCOc1ccc(C2CN(CCC(=O)O)CCO2)c(C(F)(F)F)c1.Cl (centres unmarked) [Compound 189, 3-[2-(4-Octyloxy-2-trifluoromethyl-phenyl)-morpholin-4-yl]-propionic acid hydrochloride] | –
